What was measured:
[1] = Stability of L-dopa in fermentation broth adjusted to different pH, stored at room temperature (HPLC); format: physicochemical; settings: for L-dopa concentration, fermentation broth at pH 4.5 (sample 4): pH 4.5, room temperature; for L-dopa concentration, fermentation broth at pH 4.5 (sample 4) / L-dopa concentration, fermentation broth at pH 5.5 (sample 3) / L-dopa concentration, fermentation broth at pH 6.5 (sample 2) / L-dopa concentration, fermentation broth at pH 7.5 (sample 1): broth at pH 4.5 related to 10; for L-dopa concentration, fermentation broth at pH 5.5 (sample 3): pH 5.5, room temperature; for L-dopa concentration, fermentation broth at pH 6.5 (sample 2): pH 6.5, room temperature; for L-dopa concentration, fermentation broth at pH 7.5 (sample 1): pH 7.5, room temperature
Protocol: (§1) To perform the HPLC analysis, the HPLC 1100 system of Aegilent (Waldbronn, Germany) with a Diode Array Detector was used. The compounds were measured at a wavelength of 200 nm. A Nucleosil-120-5-C18 column (250×4 mm) from Macherey-Nagel was used as the solid phase. The column was eluted using a gradient starting with eluent A (10 mM H3PO4) and eluent B (100% acetonitril). Gradient: 0 min 2% B, 25 min up to 90% B, 27 min to 30 min 2% B. The elution rate was set at 1.2 ml/min, the column temperature was set at 40° C.
A sample of the fermentation broth in which L-dopa is present, prepared as described in example 6, which had been adjusted to pH 7.5 (sample 1), pH 6.5 (sample 2), pH 5.5 (sample 3) and pH 4.5 (sample 4) was used. The samples 1, 2, 3 and 4 were stored at room temperature for 600 hours and L-dopa concentrations were determined at several points in time (up to 600 hours). L-dopa concentrations were determined by HPLC analysis as a function of time (see: Table 4) with the […], i.e. fermentation broth at pH 4.5, related to 10.

[2] = Stability of L-dopa during fed-batch fermentation with and without pH-shift; format: physicochemical, Escherichia coli
Protocol: Cultivations in a fermentor were conducted in a 2.0 L bioreactor (Labfors, Infors; Switzerland) with 10% inoculation; which was cultivated at 33° C. The cultivation started at pH 6.7. The mineral fermentation medium (see composition above) was directly sterilized in the bioreactor together with the calibrated pH- and Oxygen-sensors.
pH was controlled by 17.5% NH4OH (1:2 diluted) and a 5 N KOH solution. A separate glucose feed (500 g·^−1) was started when the OD620nm was higher than 5. At OD620nm 10, which was reached after about 14 hours Isopropyl-beta-D-thiogalactopyranoside (IPTG) was added to a final concentration of 0.1 mM. […]
Biomass (OD620nm) and L-dopa concentrations were determined by HPLC analysis (see example 5 for HPLC conditions) as a function of time (see: Table 1). The L-dopa concentration at 43 hours was related to 10.
A fermentation was performed describes as in example 6 with the following differences:
At OD620nm 5 (reached after 7 hours) IPTG was added.
The L-dopa concentration reached after 32 hours was related to 10.

[3] = Storage stability of L-dopa in fermentation broth, extracted water phase and reextraction medium (reactive extraction, HPLC); format: physicochemical; settings: for change of L-dopa concentration during storage: room temperature, up to 600 h; for relative L-dopa concentration of untreated fermentation broth (sample A, pH = 7.5): pH 7.5, stored at room temperature; for relative L-dopa concentration of water phase of fermentation broth extracted by kerosene/D2EHPA (sample B, pH acidic): stored at room temperature; for relative L-dopa concentration of re-extracted organic phase by KCl (sample C, pH = 6.3): pH 6.3, stored at room temperature
Protocol: as §1
A sample of the fermentation broth in which L-dopa is present, prepared as described in example 6, which had been adjusted to pH 7,5 (sample A), was used. 5 ml kerosene containing 10% D2EHPA (pH acidic) was mixed vigorously with the same volume of sample A for 30 seconds on a vortex mixer. After separation of the two phases (about 10 minutes) the water phase containing L-dopa, the extraction medium (sample B) was stored at room temperature. L-dopa dissolved in the organic phase was reextracted by mixing 2 ml of the organic phase with 1 ml of 1 M KCl (pH=6.3) by shaking vigorously for 30s. After separation of the two phases (about 10 minutes), the water phase containing L-dopa, the reextraction medium (sample C) was stored at room temperature. The samples A, B and C were stored at room temperature for 600 hours and L-dopa concentrations were determined at several points in time (up to 600 hours). L-dopa concentrations were determined by HPLC analysis as a function of time (see: Table 3).

SMILES: N[C@@H](Cc1ccc(O)c(O)c1)C(=O)O [L-dopa, L-3,4-dihydroxyphenylalanine]
- L-dopa concentration, fermentation broth at pH 4.5 (sample 4) ([1]; 24 h): 10
- L-dopa concentration, fermentation broth at pH 4.5 (sample 4) ([1]; 96 h): 10
- L-dopa concentration, fermentation broth at pH 4.5 (sample 4) ([1]; 168 h): 10
- L-dopa concentration, fermentation broth at pH 4.5 (sample 4) ([1]; 336 h): 10
- L-dopa concentration, fermentation broth at pH 4.5 (sample 4) ([1]; 408 h): 10
- L-dopa concentration, fermentation broth at pH 4.5 (sample 4) ([1]; 504 h): 10
- L-dopa concentration, fermentation broth at pH 4.5 (sample 4) ([1]; 600 h): 10
- L-dopa concentration, fermentation broth at pH 5.5 (sample 3) ([1]; 24 h): 9
- L-dopa concentration, fermentation broth at pH 5.5 (sample 3) ([1]; 96 h): 9
- L-dopa concentration, fermentation broth at pH 5.5 (sample 3) ([1]; 168 h): 9
- L-dopa concentration, fermentation broth at pH 5.5 (sample 3) ([1]; 336 h): 9
- L-dopa concentration, fermentation broth at pH 5.5 (sample 3) ([1]; 408 h): 9
- L-dopa concentration, fermentation broth at pH 5.5 (sample 3) ([1]; 504 h): 8
- L-dopa concentration, fermentation broth at pH 5.5 (sample 3) ([1]; 600 h): 8
- L-dopa concentration, fermentation broth at pH 6.5 (sample 2) ([1]; 24 h): 7
- L-dopa concentration, fermentation broth at pH 6.5 (sample 2) ([1]; 96 h): 7
- L-dopa concentration, fermentation broth at pH 6.5 (sample 2) ([1]; 168 h): 7
- L-dopa concentration, fermentation broth at pH 6.5 (sample 2) ([1]; 336 h): 5
- L-dopa concentration, fermentation broth at pH 6.5 (sample 2) ([1]; 408 h): 5
- L-dopa concentration, fermentation broth at pH 6.5 (sample 2) ([1]; 504 h): 4
- L-dopa concentration, fermentation broth at pH 6.5 (sample 2) ([1]; 600 h): 4
- L-dopa concentration, fermentation broth at pH 7.5 (sample 1) ([1]; 24 h): 6
- L-dopa concentration, fermentation broth at pH 7.5 (sample 1) ([1]; 96 h): 6
- L-dopa concentration, fermentation broth at pH 7.5 (sample 1) ([1]; 168 h): 5
- L-dopa concentration, fermentation broth at pH 7.5 (sample 1) ([1]; 336 h): 4
- L-dopa concentration, fermentation broth at pH 7.5 (sample 1) ([1]; 408 h): 3
- L-dopa concentration, fermentation broth at pH 7.5 (sample 1) ([1]; 504 h): 3
- L-dopa concentration, fermentation broth at pH 7.5 (sample 1) ([1]; 600 h): 2
- effect of pH of the fermentation broth on stability of L-dopa ([1]; pH 7.5 to 4.5, room temperature, up to 600 h): lower pH values of the fermentation broth increase the stability of L-dopa
- stability of L-dopa in the fermentation ([2]; fermentation at pH 6.7, no pH-shift): less stable
- stability of L-dopa in the fermentation ([2]; fermentation with pH-shift from pH 6.7 to pH 5.8): stable
- change of L-dopa concentration during storage ([3]; after extraction of the broth with kerosene/D2EHPA (sample B, acidic pH)): decrease of concentration of L-dopa was nearly prevented
- change of L-dopa concentration during storage ([3]; after re-extraction with KCl (sample C, pH 6.3)): no decrease of L-dopa concentration was observed
- change of L-dopa concentration during storage ([3]; fermentation broth without kerosene/D2EHPA extraction (sample A, pH 7.5)): decreases during the storage time
- relative L-dopa concentration of untreated fermentation broth (sample A, pH = 7.5) ([3]; 24 h): 0.7
- relative L-dopa concentration of untreated fermentation broth (sample A, pH = 7.5) ([3]; 96 h): 0.7
- relative L-dopa concentration of untreated fermentation broth (sample A, pH = 7.5) ([3]; 168 h): 0.6
- relative L-dopa concentration of untreated fermentation broth (sample A, pH = 7.5) ([3]; 336 h): 0.5
- relative L-dopa concentration of untreated fermentation broth (sample A, pH = 7.5) ([3]; 408 h): 0.4
- relative L-dopa concentration of untreated fermentation broth (sample A, pH = 7.5) ([3]; 504 h): 0.4
- relative L-dopa concentration of untreated fermentation broth (sample A, pH = 7.5) ([3]; 600 h): 0.3
- relative L-dopa concentration of water phase of fermentation broth extracted by kerosene/D2EHPA (sample B, pH acidic) ([3]; 24 h): 0.8
- relative L-dopa concentration of water phase of fermentation broth extracted by kerosene/D2EHPA (sample B, pH acidic) ([3]; 96 h): 0.7
- relative L-dopa concentration of water phase of fermentation broth extracted by kerosene/D2EHPA (sample B, pH acidic) ([3]; 168 h): 0.7
- relative L-dopa concentration of water phase of fermentation broth extracted by kerosene/D2EHPA (sample B, pH acidic) ([3]; 336 h): 0.8
- relative L-dopa concentration of water phase of fermentation broth extracted by kerosene/D2EHPA (sample B, pH acidic) ([3]; 408 h): 0.7
- relative L-dopa concentration of water phase of fermentation broth extracted by kerosene/D2EHPA (sample B, pH acidic) ([3]; 504 h): 0.8
- relative L-dopa concentration of water phase of fermentation broth extracted by kerosene/D2EHPA (sample B, pH acidic) ([3]; 600 h): 0.7
- relative L-dopa concentration of re-extracted organic phase by KCl (sample C, pH = 6.3) ([3]; 24 h): 0.3
- relative L-dopa concentration of re-extracted organic phase by KCl (sample C, pH = 6.3) ([3]; 96 h): 0.3
- relative L-dopa concentration of re-extracted organic phase by KCl (sample C, pH = 6.3) ([3]; 168 h): 0.3
- relative L-dopa concentration of re-extracted organic phase by KCl (sample C, pH = 6.3) ([3]; 336 h): 0.4
- relative L-dopa concentration of re-extracted organic phase by KCl (sample C, pH = 6.3) ([3]; 408 h): 0.4
- relative L-dopa concentration of re-extracted organic phase by KCl (sample C, pH = 6.3) ([3]; 504 h): 0.4
- relative L-dopa concentration of re-extracted organic phase by KCl (sample C, pH = 6.3) ([3]; 600 h): 0.4
